# Measured values taken from patent publication US8450317B2, “CXCR3 receptor antagonists” (Boehringer Ingelheim International GmbH, priority 2009, dated 2013).
# Target: CXCR3 (Macaca fascicularis, UniProt A0A2K5UV19)
# Test: functional cellular assay measuring calcium flux in CXCR3 transfected cells (block of CXCR3/IP-10 interaction)
# Format: cell-based, Cyno
# Conditions: IP-10 induced intracellular calcium flux; Cyno-CHO cells stably expressing recombinant CXCR3 and G-alpha-16; IP-10 at EC80; read-out: IC50
# Summary of the method: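 Inhibition of IP-10-induced calcium flux at 10 microM final compound, 15 min room-temperature preincubation, with IP-10 at EC80. Cells: CHO stably transfected with cynomolgus CXCR3 plus G-alpha-16, dye-loaded (Ca-4, 2 mM probenecid, HBSS/HEPES pH 7.4) 1 h at 37° C.; fluorescence ex 480/em 540 nm.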
# Chain of CXCR3 (A0A2K5UV19 entry or part of it): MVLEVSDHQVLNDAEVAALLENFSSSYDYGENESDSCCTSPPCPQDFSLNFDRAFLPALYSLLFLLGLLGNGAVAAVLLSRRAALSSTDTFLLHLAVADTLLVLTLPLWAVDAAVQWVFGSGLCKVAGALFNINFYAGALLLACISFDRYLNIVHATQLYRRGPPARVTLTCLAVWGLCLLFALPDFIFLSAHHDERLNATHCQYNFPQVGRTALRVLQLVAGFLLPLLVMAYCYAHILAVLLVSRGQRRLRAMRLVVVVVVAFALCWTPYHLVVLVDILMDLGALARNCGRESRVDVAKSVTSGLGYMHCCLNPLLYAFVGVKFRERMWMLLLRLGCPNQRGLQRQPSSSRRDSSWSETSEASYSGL
row,SMILES,IC50 [nM]
1,"CC1CN(c2ccccc2-c2cnc(S(C)(=O)=O)nc2)CCN1C(=O)Cn1ccc2cccnc21 (stereo not drawn) [1-(2-methyl-4-{2-[2-(methylsulfonyl)pyrimidin-5-yl]phenyl}piperazin-1-yl)-2-(1H-pyrrolo[2,3-b]pyridin-1-yl)ethanone]",27
2,"CC1CN(c2ccc(F)cc2-c2cnc(S(C)(=O)=O)nc2)CCN1C(=O)Cn1c(=O)[nH]c2ccccc21 (stereo not drawn) [1-[2-(4-{4-fluoro-2-[2-(methylsulfonyl)pyrimidin-5-yl]phenyl}-2-methylpiperazin-1-yl)-2-oxoethyl]-1,3-dihydro-2H-benzimidazol-2-one]",60
3,"COc1ncc(-c2cc(F)ccc2N2CCN(C(=O)Cn3ccc4ccncc43)CC2)cn1 [1-{4-[4-fluoro-2-(2-methoxypyrimidin-5-yl)phenyl]piperazin-1-yl}-2-(1H-pyrrolo[2,3-c]pyridin-1-yl)ethanone]",13
4,CC1CN(c2ccccc2-c2cnc(N3CCC(S(C)(=O)=O)CC3)nc2)CCN1C(=O)CN1CCCCC1=O (stereo not drawn) [1-{2-[2-methyl-4-(2-{2-[4-(methylsulfonyl)piperidin-1-yl]pyrimidin-5-yl}phenyl)piperazin-1-yl]-2-oxoethyl}piperidin-2-one],34
5,"Cc1cc(C)n(CC(=O)N2CCN(c3ccccc3-c3cnc(N(C)C)nc3)CC2)n1 [1-{4-[2-(2-Dimethylamino-pyrimidin-5-yl)-phenyl]-piperazin-1-yl}-2-(3,5-dimethyl-pyrazol-1-yl)-ethanone]",7
6,"CS(=O)(=O)c1ncc(-c2cc(C(F)(F)F)ccc2N2CCN(C(=O)Cn3ccc4cccnc43)CC2)cn1 [1-{4-[2-(2-Methanesulfonyl-pyrimidin-5-yl)-4-trifluoromethyl-phenyl]-piperazin-1-yl}-2-pyrrolo[2,3-b]pyridin-1-yl-ethanone]",13
7,"CC1CN(c2ccccc2-c2cnc(N3CCOCC3)nc2)CCN1C(=O)Cn1ccc2cccnc21 (stereo not drawn) [1-{2-Methyl-4-[2-(2-morpholin-4-yl-pyrimidin-5-yl)-phenyl]-piperazin-1-yl}-2-pyrrolo[2,3-b]pyridin-1-yl-ethanone]",13
8,"Cc1cc(C)n(CC(=O)N2CCN(c3ccccc3-c3cnc(Oc4cccnc4)nc3)CC2)n1 [2-(3,5-Dimethyl-pyrazol-1-yl)-1-(4-{2-[2-(pyridin-3-yloxy)-pyrimidin-5-yl]-phenyl}-piperazin-1-yl)-ethanone]",56
9,"COc1ncc(-c2cc(C(F)(F)F)ccc2N2CCN(C(=O)Cn3nc(C)cc3C)CC2)cn1 [2-(3,5-Dimethyl-pyrazol-1-yl)-1-{4-[2-(2-methoxy-pyrimidin-5-yl)-4-trifluoromethyl-phenyl]-piperazin-1-yl}-ethanone]",8
10,"CC1CN(c2ccc(F)cc2-c2cnc(N3CCC(S(C)(=O)=O)CC3)nc2)CCN1C(=O)Cn1ccc2cccnc21 (stereo not drawn) [1-[4-(4-fluoro-2-{2-[4-(methylsulfonyl)piperidin-1-yl]pyrimidin-5-yl}phenyl)-2-methylpiperazin-1-yl]-2-(1H-pyrrolo[2,3-b]pyridin-1-yl)ethanone]",8

# More lines, now with the values ahead:
row,IC50 [nM],SMILES
1,43,"Cc1cc(C)n(CC(=O)N2CCN(c3ccccc3-c3cnc(C#N)nc3)CC2)n1 [5-(2-{4-[2-(3,5-Dimethyl-pyrazol-1-yl)-acetyl]-piperazin-1-yl}-phenyl)-pyrimidine-2-carbonitrile]"
2,278,"Cc1cc(C)n(CC(=O)N2CCN(c3ccc(F)cc3-c3cnc(S(C)(=O)=O)nc3)CC2)n1 [2-(3,5-dimethyl-1H-pyrazol-1-yl)-1-(4-{4-fluoro-2-[2-(methylsulfonyl)pyrimidin-5-yl]phenyl}piperazin-1-yl)ethanone]"
3,189,"CC1CN(c2ccc(C(F)(F)F)cc2-c2cnc(S(C)(=O)=O)nc2)CCN1C(=O)Cn1cnc2cccnc21 (stereo not drawn) [2-(3H-imidazo[4,5-b]pyridin-3-yl)-1-(2-methyl-4-{2-[2-(methylsulfonyl)pyrimidin-5-yl]-4-(trifluoromethyl)phenyl}piperazin-1-yl)ethanone]"
4,434,"CC1CN(c2ccccc2-c2cnc(S(C)(=O)=O)nc2)CCN1C(=O)Cn1cnc2cccnc21 (stereo not drawn) [2-(3H-imidazo[4,5-b]pyridin-3-yl)-1-(2-methyl-4-{2-[2-(methylsulfonyl)pyrimidin-5-yl]phenyl}piperazin-1-yl)ethanone]"
5,18,"Cc1cc(C)n(CC(=O)N2CCN(c3ccc(C#N)cc3-c3cnc(N4CCOCC4)nc3)CC2)n1 [4-{4-[2-(3,5-Dimethyl-pyrazol-1-yl)-acetyl]-piperazin-1-yl}-3-(2-morpholin-4-yl-pyrimidin-5-yl)-benzonitrile]"
6,150,"COc1ncc(-c2cc(C#N)ccc2N2CCN(C(=O)Cn3nc(C)cc3C)CC2)cn1 [4-{4-[2-(3,5-Dimethyl-pyrazol-1-yl)-acetyl]-piperazin-1-yl}-3-(2-methoxy-pyrimidin-5-yl)-benzonitrile]"
7,20,"C[C@@H]1CN(c2ccc(F)cc2C(=O)Nc2nc3c(s2)CN(C)CC3)CCN1C(=O)CN1CCCCC1=O [5-fluoro-2-{(3R)-3-methyl-4-[(2-oxopiperidin-1-yl)acetyl]piperazin-1-yl}-N-(5-methyl-4,5,6,7-tetrahydro[1,3]thiazolo[5,4-c]pyridin-2-yl)benzamide]"
8,47,N#Cc1ccc(-c2ccccc2N2CCN(C(=O)CNc3nccs3)CC2)cn1 [5-(2-{4-[2-(Thiazol-2-ylamino)-acetyl]-piperazin-1-yl}-phenyl)-pyridine-2-carbonitrile]
9,28,COc1ncc(-c2ccccc2N2CCN(C(=O)Cn3cc4ccccc4n3)CC2)cn1 [2-Indazol-2-yl-1-{4-[2-(2-methoxy-pyrimidin-5-yl)-phenyl]-piperazin-1-yl}-ethanone]
10,7,"Cc1cc(C)n(CC(=O)N2CCN(c3ccccc3-c3cnc(N4CCCC4)nc3)CC2)n1 [2-(3,5-Dimethyl-pyrazol-1-yl)-1-{4-[2-(2-pyrrolidin-1-yl-pyrimidin-5-yl)-phenyl]-piperazin-1-yl}-ethanone]"

# Tested on: LDL receptor knockout model
# Test: not given
# Conditions: dosed prophylactically in a LDL receptor knockout model; cited from earlier work
row,SMILES,atherosclerotic lesion formation
1,CCOc1ccc(-n2c(C(C)N(Cc3cccnc3)C(=O)Cc3ccc(F)c(C(F)(F)F)c3)nc3ncccc3c2=O)cc1 (stereo not drawn) [NBI-74330],significantly attenuated atherosclerotic lesion formation
